In US9156856B2, “Apoptosis-inducing agents for the treatment of cancer and immune and autoimmune diseases” (AbbVie Inc., priority 2009, dated 2015):

Target: Bcl-2 (Homo sapiens (Human), UniProt P10415)
Assay: Time Resolved-Fluorescence Resonance Energy Transfer (TR-FRET) Bcl-2 binding assay with F-Bak peptide probe
Conditions: GST-Bcl-2 1 nM, F-Bak peptide probe 100 nM, Tb-anti-GST antibody 1 nM; Ki by Wang's equation
Procedure: Determination of the utility of compounds having Formula (I) as binders to and inhibitors of anti-apoptotic Bcl-2 proteins was performed using the Time Resolved-Fluorescence Resonance Energy Transfer (TR-FRET) Assay. Tb-anti-GST antibody was purchased from Invitrogen (Catalog No. PV4216).
Representative compounds were serially diluted in dimethyl sulfoxide (DMSO) starting at 50 μM (2× starting concentration; 10% DMSO) and 10 μL were transferred into a 384-well plate. The samples are then mixed on a shaker for 1 minute and incubated for an additional 3 hours at room temperature. For each assay, the probe/antibody and protein/probe/antibody were included on each assay plate as negative and positive controls, respectively. Fluorescence was measured on the ENVISION plate reader (Perkin Elmer) using a 340/35 nm excitation filter and 520/525 (F-Bak peptide) and 495/510 nm (Tb-labeled […] antibody) emission filters Inhibition constants (Ki) are shown in TABLE 2 below and were determined using Wang's equation (Wang Z.-X. An Exact Mathematical Expression For Describing Competitive Binding Of Two Different Ligands To A Protein Molecule. FEBS Lett. 1995, 360:111-4).
The inhibition constant (Ki) is the dissociation constant of an enzyme-inhibitor complex or a protein/small molecule complex, wherein the small molecule is inhibiting binding of one protein to another protein. So a large K, value indicates a low binding affinity and a small Ki value indicates a high binding affinity.
The compounds are therefore expected to have utility in treatment of diseases during which anti-apoptotic Bcl-2 protein is expressed.

Sequence of Bcl-2 (P10415 whole entry): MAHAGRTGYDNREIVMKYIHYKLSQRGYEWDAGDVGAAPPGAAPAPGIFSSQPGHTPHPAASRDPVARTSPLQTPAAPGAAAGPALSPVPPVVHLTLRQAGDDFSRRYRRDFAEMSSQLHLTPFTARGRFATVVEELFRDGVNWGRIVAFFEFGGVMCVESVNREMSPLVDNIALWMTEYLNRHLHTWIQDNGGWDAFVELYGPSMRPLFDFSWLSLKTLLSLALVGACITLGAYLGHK

Compound	Ki
CC(C)N(C)CC[C@H](CSc1ccccc1)Nc1sc(S(=O)(=O)NC(=O)c2ccc(N3CCN(CC4=C(c5ccc(Cl)cc5)CCCC4)CC3)cc2)cc1[N+](=O)[O-] [Example 8, 4-(4-{[2-(4-chlorophenyl)cyclohex-1-en-1-yl]methyl}piperazin-1-yl)-N-{[5-({(1R)-3-[isopropyl(methyl)amino]-1-[(phenylthio)methyl]propyl}amino)-4-nitrothien-2-yl]sulfonyl}benzamide]	0.064 nM
CC1(C)CCC(CN2CCN(c3ccc(C(=O)NS(=O)(=O)c4cc([N+](=O)[O-])c(NCCCN5CCOCC5)s4)c(Oc4ccc5[nH]ccc5c4)c3)CC2)=C(c2ccc(Cl)cc2)C1 [Example 35, 4-(4-{[2-(4-chlorophenyl)-4,4-dimethylcyclohex-1-en-1-yl]methyl}piperazin-1-yl)-2-(1H-indol-5-yloxy)-N-({5-[(3-morpholin-4-ylpropyl)amino]-4-nitrothien-2-yl}sulfonyl)benzamide]	2.07 nM
Cc1nc(OCC2(F)CCOCC2)sc1S(=O)(=O)NC(=O)c1ccc(N2CCN(CC3=C(c4ccc(Cl)cc4)CC(C)(C)CC3)CC2)cc1Oc1cnc2[nH]ccc2c1 [Example 45, 4-(4-{[2-(4-chlorophenyl)-4,4-dimethylcyclohex-1-en-1-yl]methyl}piperazin-1-yl)-N-({2-[(4-fluorotetrahydro-2H-pyran-4-yl)methoxy]-4-methyl-1,3-thiazol-5-yl}sulfonyl)-2-(1H-pyrrolo[2,3-b]pyridin-5-yloxy)benzamide]	6.73 nM
Cc1nsc(S(=O)(=O)NC(=O)c2ccc(N3CCN(Cc4ccccc4-c4ccc(Cl)cc4)CC3)cc2)c1Cl [Example 24, 4-{4-[(4′-chloro-1,1′-biphenyl-2-yl)methyl]piperazin-1-yl}-N-[(4-chloro-3-methylisothiazol-5-yl)sulfonyl]benzamide]	342 nM
Cc1nc(OC[C@@H]2CN(C(=O)OC(C)(C)C)CCO2)sc1S(=O)(=O)NC(=O)c1ccc(N2CCN(CC3=C(c4ccc(Cl)cc4)CC(C)(C)CC3)CC2)cc1Oc1cccc2[nH]ncc12 [Example 47, (S)-tert-butyl 2-((5-(N-(2-(1H-indazol-4-yloxy)-4-(4-((2-(4-chlorophenyl)-4,4-dimethylcyclohex-1-enyl)methyl)piperazin-1-yl)benzoyl)sulfamoyl)-4-methylthiazol-2-yloxy)methyl)morpholine-4-carboxylate]	20.4 nM
CC1(C)CCC(CN2CCN(c3ccc(C(=O)NS(=O)(=O)c4cc([N+](=O)[O-])c(NCCCN5CCCC5)s4)c(Oc4ccc5[nH]ccc5c4)c3)CC2)=C(c2ccc(Cl)cc2)C1 [Example 33, 4-(4-{[2-(4-chlorophenyl)-4,4-dimethylcyclohex-1-en-1-yl]methyl}piperazin-1-yl)-2-(1H-indol-5-yloxy)-N-({4-nitro-5-[(3-pyrrolidin-1-ylpropyl)amino]thien-2-yl}sulfonyl)benzamide]	0.649 nM
Cc1c(S(=O)(=O)NC(=O)c2ccc(N3CCN(Cc4ccccc4-c4ccc(Cl)cc4)CC3)cc2)sc2ccc(F)cc12 [Example 17, 4-{4-[(4′-chloro-1,1′-biphenyl-2-yl)methyl]piperazin-1-yl}-N-[(5-fluoro-3-methyl-1-benzothien-2-yl)sulfonyl]benzamide]	356 nM
CN(C)CCCNc1sc(S(=O)(=O)NC(=O)c2ccc(N3CCN(CC4=C(c5ccc(Cl)cc5)CC(C)(C)CC4)CC3)cc2Oc2ccc3[nH]ccc3c2)cc1[N+](=O)[O-] [Example 34, 4-(4-{[2-(4-chlorophenyl)-4,4-dimethylcyclohex-1-en-1-yl]methyl}piperazin-1-yl)-N-[(5-{[3-(dimethylamino)propyl]amino}-4-nitrothien-2-yl)sulfonyl]-2-(1H-indol-5-yloxy)benzamide]	1.79 nM
O=C(NS(=O)(=O)c1c(Cl)nc2sccn12)c1ccc(N2CCN(Cc3ccccc3-c3ccc(Cl)cc3)CC2)cc1 [Example 13, 4-{4-[(4′-chloro-1,1′-biphenyl-2-yl)methyl]piperazin-1-yl}-N-[(6-chloroimidazo[2,1-b][1,3]thiazol-5-yl)sulfonyl]benzamide]	388 nM
